Laboratory results reported in ChEMBL document CHEMBL5390243, “Catecholamine Derivatives: Natural Occurrence, Structural Diversity, and Biological Activity” (J Nat Prod, 2023).
≈ marks a conversion by molar mass, not a printed value.

Experiments:
[1] = target: Glycogen synthase kinase-3 beta (Homo sapiens, UniProt P49841); test: Inhibition of N-terminal His6-tagged human recombinant GSK3beta expressed in baculovirus-infected Sf21 cells incubated for 60 mins in presence of ATP by ADP-glo analysis
Chain of Glycogen synthase kinase-3 beta (P49841 whole entry): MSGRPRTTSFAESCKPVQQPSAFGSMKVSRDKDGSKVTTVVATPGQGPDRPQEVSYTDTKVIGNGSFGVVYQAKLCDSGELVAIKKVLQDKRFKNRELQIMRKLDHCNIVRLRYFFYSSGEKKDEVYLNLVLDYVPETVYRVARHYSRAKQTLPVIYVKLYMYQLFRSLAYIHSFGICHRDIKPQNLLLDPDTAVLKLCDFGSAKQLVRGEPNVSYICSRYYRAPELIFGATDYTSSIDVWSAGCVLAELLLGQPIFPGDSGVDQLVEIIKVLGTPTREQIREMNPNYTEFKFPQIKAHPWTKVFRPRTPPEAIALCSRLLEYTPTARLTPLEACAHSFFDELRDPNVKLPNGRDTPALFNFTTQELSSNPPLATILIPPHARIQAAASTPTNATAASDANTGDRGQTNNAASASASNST

[2] = target: Cyclin-dependent kinase 5/CDK5 activator 1 (Homo sapiens, UniProt Q00535); test: Inhibition of N-terminal full length human recombinant CDK5/p25 expressed in baculovirus-infected Sf21 cells incubated for 60 mins in presence of ATP by kinase-glo luminescent assay
Chain of Cyclin-dependent kinase 5/CDK5 activator 1 (Q00535 whole entry, the tested form may be a part, canonical isoform): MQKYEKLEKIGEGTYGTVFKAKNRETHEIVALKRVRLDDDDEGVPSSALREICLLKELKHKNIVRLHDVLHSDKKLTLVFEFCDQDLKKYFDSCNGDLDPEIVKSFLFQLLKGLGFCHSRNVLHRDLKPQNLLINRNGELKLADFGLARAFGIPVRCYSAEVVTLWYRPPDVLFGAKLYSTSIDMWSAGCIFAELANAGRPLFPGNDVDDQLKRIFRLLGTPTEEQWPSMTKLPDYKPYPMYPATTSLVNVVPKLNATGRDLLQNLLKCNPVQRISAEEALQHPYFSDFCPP
Chain of Cyclin-dependent kinase 5/CDK5 activator 1 (Q15078 whole entry, further chain, the tested form may be a part, canonical isoform): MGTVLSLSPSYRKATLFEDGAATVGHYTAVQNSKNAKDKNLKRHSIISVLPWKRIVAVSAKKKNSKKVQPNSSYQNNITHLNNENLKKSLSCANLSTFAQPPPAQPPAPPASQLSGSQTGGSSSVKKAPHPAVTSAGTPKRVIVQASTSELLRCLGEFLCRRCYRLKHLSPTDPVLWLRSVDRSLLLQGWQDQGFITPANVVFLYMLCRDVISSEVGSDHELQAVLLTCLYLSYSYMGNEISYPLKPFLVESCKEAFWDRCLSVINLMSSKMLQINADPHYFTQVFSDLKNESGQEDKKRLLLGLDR

[3] = target: Casein kinase I isoform delta (Homo sapiens, UniProt P48730); test: Inhibition of N-terminal GST-tagged human recombinant CK1delta (1 to 294 residues) expressed in Escherichia coli incubated for 60 mins in presence of ATP by Kinase-glo luminescent assay
Chain of Casein kinase I isoform delta (P48730 whole entry, the tested form may be a part, canonical isoform): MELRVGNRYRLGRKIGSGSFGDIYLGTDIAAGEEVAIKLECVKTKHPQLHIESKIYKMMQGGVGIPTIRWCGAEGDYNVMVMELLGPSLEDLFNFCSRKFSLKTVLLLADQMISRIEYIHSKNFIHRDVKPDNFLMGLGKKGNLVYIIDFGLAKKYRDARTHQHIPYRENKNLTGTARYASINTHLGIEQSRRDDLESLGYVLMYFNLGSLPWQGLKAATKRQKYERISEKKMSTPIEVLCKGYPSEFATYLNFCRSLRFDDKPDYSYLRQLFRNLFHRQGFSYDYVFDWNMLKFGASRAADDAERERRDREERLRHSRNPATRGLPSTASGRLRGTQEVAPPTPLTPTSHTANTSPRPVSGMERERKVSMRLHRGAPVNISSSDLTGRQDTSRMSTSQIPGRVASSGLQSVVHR

[4] = Metal chelating activity assessed as iron chelation by CAS assay
[5] = system: SGC-7901; test: Cytotoxicity against human SGC-7901 cells assessed as reduction in cell viability measured after 72 hrs by MTT assay; type: functional, cell-based; conditions: SGC-7901, 72 h
[6] = target: Beta-1 adrenergic receptor (Homo sapiens) (UniProt P08588); test: Agonist activity at ARbeta1 (unknown origin) expressed in CHO-K1 cells co-expressing G alpha 15 assessed as inhibition of isoproterenol induced calcium response upto 100 uM incubated for 10 mins by calcium mobilization assay relative to control; type: functional, cell-based; set-up: Activity: scale not given: the % may be the effect or the level left
Chain of Beta-1 adrenergic receptor (Homo sapiens) (P08588 whole entry, looked up): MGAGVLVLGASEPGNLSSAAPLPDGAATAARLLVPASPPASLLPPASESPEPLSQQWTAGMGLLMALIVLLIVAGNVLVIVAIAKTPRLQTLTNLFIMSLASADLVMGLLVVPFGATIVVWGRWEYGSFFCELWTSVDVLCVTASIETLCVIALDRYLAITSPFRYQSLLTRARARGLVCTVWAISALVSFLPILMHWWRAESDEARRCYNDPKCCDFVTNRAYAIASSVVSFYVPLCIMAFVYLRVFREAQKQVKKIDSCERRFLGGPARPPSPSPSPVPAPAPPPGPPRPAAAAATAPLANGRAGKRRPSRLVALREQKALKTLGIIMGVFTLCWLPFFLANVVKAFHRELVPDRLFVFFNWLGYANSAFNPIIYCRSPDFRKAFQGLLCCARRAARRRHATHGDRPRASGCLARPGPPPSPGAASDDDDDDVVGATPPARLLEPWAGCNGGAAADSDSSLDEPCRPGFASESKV

[7] = system: RAW264.7; test: Antiinflammatory activity against LPS-induced mouse RAW264.7 cells assessed as reduction in IL-6 mRNA expression at 10 uM by RT-PCR analysis; type: functional; set-up: scale not given: the % may be the effect or the level left
[8] = system: RAW264.7; test: Anti-inflammatory activity against mouse RAW264.7 cells assessed as inhibition of LPS-induced NO production at 100 ng/ml pretreated with compound for 2 hrs followed by LPS stimulation and measured after 24 hrs by Griess reagent based analysis; type: functional; set-up: scale not given: the % may be the effect or the level left; conditions: time 26 hrs
[9] = system: Helicoverpa armigera; test: Antifeedant activity against Helicoverpa armigera at 100 uM relative to control; type: functional
[10] = target: T1, Acetylcholinesterase (Homo sapiens, UniProt P22303); test: Inhibition of AChE (unknown origin) by Ellman's method
T1 sequence (P22303 whole entry): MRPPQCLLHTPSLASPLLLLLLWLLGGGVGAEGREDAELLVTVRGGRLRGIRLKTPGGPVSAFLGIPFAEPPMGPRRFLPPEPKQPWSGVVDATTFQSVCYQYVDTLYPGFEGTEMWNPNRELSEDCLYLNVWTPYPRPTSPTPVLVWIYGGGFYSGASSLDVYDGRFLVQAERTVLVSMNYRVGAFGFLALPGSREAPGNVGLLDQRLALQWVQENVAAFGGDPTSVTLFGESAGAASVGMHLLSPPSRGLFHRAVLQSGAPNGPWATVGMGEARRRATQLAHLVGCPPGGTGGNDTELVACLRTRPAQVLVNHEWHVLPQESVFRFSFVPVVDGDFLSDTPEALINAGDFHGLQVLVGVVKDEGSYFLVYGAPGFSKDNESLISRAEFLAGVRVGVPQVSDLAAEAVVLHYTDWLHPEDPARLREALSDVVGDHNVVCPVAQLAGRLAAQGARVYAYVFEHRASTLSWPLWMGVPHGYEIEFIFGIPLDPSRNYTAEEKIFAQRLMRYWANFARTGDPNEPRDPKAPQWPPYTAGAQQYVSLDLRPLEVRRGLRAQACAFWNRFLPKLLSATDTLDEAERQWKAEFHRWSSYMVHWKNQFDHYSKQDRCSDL

[11] = target: Cholinesterase (Homo sapiens, UniProt P06276); test: Inhibition of butyrylcholinesterase (unknown origin)
Chain of Cholinesterase (P06276 whole entry): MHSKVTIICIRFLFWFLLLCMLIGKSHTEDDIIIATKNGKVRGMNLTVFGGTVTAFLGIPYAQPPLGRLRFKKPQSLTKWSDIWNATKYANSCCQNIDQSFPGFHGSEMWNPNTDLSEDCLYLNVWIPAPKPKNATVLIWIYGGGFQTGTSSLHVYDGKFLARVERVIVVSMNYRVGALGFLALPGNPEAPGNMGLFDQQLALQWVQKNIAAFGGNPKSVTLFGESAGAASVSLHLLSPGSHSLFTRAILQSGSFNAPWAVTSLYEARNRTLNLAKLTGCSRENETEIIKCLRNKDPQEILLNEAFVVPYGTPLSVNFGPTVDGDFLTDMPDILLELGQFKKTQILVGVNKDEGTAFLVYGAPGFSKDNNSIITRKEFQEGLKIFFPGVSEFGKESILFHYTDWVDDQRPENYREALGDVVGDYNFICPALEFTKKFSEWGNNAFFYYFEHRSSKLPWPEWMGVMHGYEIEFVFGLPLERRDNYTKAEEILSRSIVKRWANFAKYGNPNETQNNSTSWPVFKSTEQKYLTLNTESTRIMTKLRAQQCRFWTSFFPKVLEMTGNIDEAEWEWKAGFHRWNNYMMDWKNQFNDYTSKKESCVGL

[12] = system: MCF7; test: Cytotoxicity against human MCF7 cells assessed as reduction in cell viability measured after 24 hrs by MTT assay; type: functional, cell-based; conditions: MCF7, 24 h
[13] = target: T1, Acetylcholinesterase; test: Inhibition of human AchE using acetylthiocholine iodide as substrate incubated for 20 mins by Ellman's assay; conditions: read-out: EC50 (the source's name)
[14] = system: HeLa; test: Cytotoxicity against human HeLa cells assessed as reduction in cell viability measured after 24 hrs by MTT assay; type: functional, cell-based
[15] = Antioxidant activity assessed as DPPH radical scavenging activity measured after 30 mins by UV-visible spectrophotometric analysis; type: functional
[16] = Antioxidant activity assessed as ABTS radical scavenging activity incubated for 30 mins by UV-visible spectrphotometric analysis; type: functional
[17] = target: T1, Acetylcholinesterase; test: Inhibition of Acetylcholinesterase (unknown origin) using acetylthiocholine iodide as substrate incubated for 20 mins by Ellaman's method
[18] = target: Alpha-2B adrenergic receptor (Homo sapiens, UniProt P18089); test: Binding affinity to alpha2B receptor (unknown origin) assessed as inhibition constant
Chain of Alpha-2B adrenergic receptor (P18089 whole entry): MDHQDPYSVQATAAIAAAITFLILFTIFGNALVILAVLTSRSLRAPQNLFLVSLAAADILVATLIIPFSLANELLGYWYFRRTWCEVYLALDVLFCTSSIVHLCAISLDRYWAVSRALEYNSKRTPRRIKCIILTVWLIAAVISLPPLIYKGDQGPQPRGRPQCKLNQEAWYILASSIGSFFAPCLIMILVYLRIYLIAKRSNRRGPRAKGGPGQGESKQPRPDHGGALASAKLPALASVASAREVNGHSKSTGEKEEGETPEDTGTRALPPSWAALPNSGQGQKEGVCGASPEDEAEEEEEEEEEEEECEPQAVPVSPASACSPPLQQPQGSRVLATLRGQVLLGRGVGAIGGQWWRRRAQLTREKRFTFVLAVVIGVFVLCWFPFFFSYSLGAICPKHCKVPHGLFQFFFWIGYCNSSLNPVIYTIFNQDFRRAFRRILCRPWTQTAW

O=c1oc2cc(O)c(O)cc2c2c(-c3ccc(O)c(O)c3)cn(CCc3ccc(O)c(O)c3)c12
IC50 [1]: 0.8 µM
IC50 [2]: 2.6 µM
IC50 [3]: 1.5 µM

NC[C@H](CCCCNC(=O)c1cccc(O)c1O)NC(=O)c1cccc(O)c1O
EC50 [4]: 4.6 µM

COc1cc2c(cc1O)[C@@H]1Cc3cc(O)c(O)cc3C[N@@+]1(C)CC2
IC50 [5]: 85.1 µM

CC1=NCCc2cc(O)c(O)cc21
Activity [6]: 15.9%

O=C(/C=C/c1ccc(O)c(O)c1)OC[C@H]1O[C@@H](O[C@H]2[C@H](O)[C@@H](OC(=O)/C=C/c3ccc(O)c(O)c3)[C@H](OC[C@H]3O[C@@H](Oc4cc5c(cc4O)C[C@@H](C(=O)O)N5C(=O)/C=C/c4ccc(O)cc4)[C@H](O)[C@@H](O)[C@@H]3O)O[C@@H]2CO)[C@H](O)[C@@H](O)[C@@H]1O
Activity [7]: 74.2%
Activity [8]: 38.8%

O=C(/C=C/c1ccc(O)cc1)NCCc1ccc(O)c(O)c1
Activity [9]: 65.1%
EC50 [10]: 16.9 µM
EC50 [11]: 41.3 µM

NC[C@H](CCCCNC(=O)c1cccc(O)c1O)N1C(=O)c2c(ccc(O)c2O)[C@@H](c2ccc(O)cc2)[C@]1(O)C(=O)O
EC50 [4]: 38.4 µM

O=C1CCc2cc(O)c(O)cc2N1
IC50 [12]: 20.5 µM

C/C=C(\C)C(=O)O[C@H]1C[C@@H](OC(C)=O)[C@@]2(C(=O)OC)CO[C@H]3[C@@H](O)[C@@](C)([C@]45O[C@@]4(C)[C@H]4C[C@@H]5O[C@@H]5OC=C[C@@]54O)[C@H]4[C@]1(CO[C@]4(O)C(=O)OC)[C@@H]32 [AZADIRACTIN]
EC50 [10]: 29.3 µM
EC50 [11]: 68.1 µM

O=C(/C=C/c1ccc(O)cc1)n1ccc2cc(O)c(O[C@@H]3O[C@H](CO)[C@@H](O)[C@H](O)[C@H]3O)cc21
IC50 [13]: 58.8 µM

O=C1C(c2ccc(O)c(O)c2)=C2C(=C(c3ccc(O)c(O)c3)C(=O)N2CCc2ccc(O)c(O)c2)c2cc(O)c(O)cc21
IC50 [1]: < 0.2 µM
IC50 [2]: < 1.5 µM
IC50 [3]: < 0.2 µM

Oc1cc2c(cc1O)[C@H](C1=C[C@@]3(O)CC/C=C\CCCCN4CC[C@@H]1[C@]1(C[C@@H]5/C=C\CCCCN5[C@H]13)C4)NCC2
IC50 [14]: 5.7 µM

NC[C@H](CCCCNC(=O)c1cccc(O)c1O)N1C(=O)c2c(ccc(O)c2O)[C@@H](c2c[nH]c3ccccc23)[C@]1(O)C(=O)O
EC50 [4]: 30.1 µM

O=C1O[C@H]([C@@H](O)CO)C(O)=C1O [ASCORBIC ACID]
EC50 [15]: 9.72 µg/mL (≈ 55.2 µM)
EC50 [16]: 4.89 µg/mL (≈ 27.8 µM)

O=Cc1ccc2n1CCc1cc(O)c(O)cc1C2
IC50 [17]: 58.4 µM

COc1cc(/C=C/C(=O)O[C@H]2[C@H](OC[C@H]3O[C@@H](Oc4cc5c(cc4O)C[C@@H](C(=O)O)N5C(=O)/C=C/c4ccc(O)c(O[C@@H]5O[C@H](CO)[C@@H](O)[C@H](O)[C@H]5O)c4)[C@H](O)[C@@H](O)[C@@H]3O)O[C@H](CO)[C@@H](O[C@@H]3O[C@H](COC(=O)/C=C/c4cc(OC)c(O)c(OC)c4)[C@@H](O)[C@H](O)[C@H]3O)[C@@H]2O)ccc1O
Activity [7]: 63.2%
Activity [8]: 22.4%

O=c1oc2cc(O)c(O)cc2c2c3c4cc(O)c(O)cc4oc(=O)c3n(CCc3ccc(O)c(O)c3)c12
IC50 [1]: 3.1 µM
IC50 [2]: 10 µM
IC50 [3]: 3.9 µM

O=C1C(c2ccc(O)c(O)c2)=c2c(c3c(n2CCc2ccc(O)c(O)c2)=C(c2ccc(O)c(O)c2)C(=O)c2cc(O)c(O)cc2-3)-c2cc(O)c(O)cc21
IC50 [1]: < 0.2 µM
IC50 [2]: < 0.5 µM
IC50 [3]: < 0.3 µM

COCc1ccc(C=O)n1CCc1ccc(O)c(O)c1
IC50 [12]: 11.6 µM

O=C1C(c2ccc(O)c(O)c2)=c2c(c3c(n2CCc2ccc(O)c(O)c2)=C(c2ccc(O)c(O)c2)C(=O)c2c-3ccc(O)c2O)-c2cc(O)c(O)cc21
IC50 [1]: < 0.5 µM
IC50 [2]: < 2.4 µM
IC50 [3]: < 1.4 µM

COc1cc(/C=C/C(=O)OC[C@H]2O[C@@H](O[C@H]3[C@H](O)[C@@H](OC(=O)/C=C/c4ccc(O)c(O)c4)[C@H](OC[C@H]4O[C@@H](Oc5cc6c(cc5O)C[C@@H](C(=O)O)N6C(=O)/C=C/c5ccc(O)cc5)[C@H](O)[C@@H](O)[C@@H]4O)O[C@@H]3CO)[C@H](O)[C@@H](O)[C@@H]2O)ccc1O
Activity [7]: 81%
Activity [8]: 34.7%

COc1cc(CCN(C)C)c2c(c1O)SC(CCNC(=N)N)(C1=NCCc3cc(O)c(O)cc31)S2 (centres undefined)
Ki [18]: 5.9 µM
